Test results as given in patent US10584124B2, “Crystalline forms” (Array BioPharma Inc., priority 2017, dated 2020).

Columns and labels:
[1] = Stability screening of freebase and selected salts of Formula I, 40° C. and 75% RH, weekly HPLC over 4 weeks
[2] = Second solubility study of the L-malic acid salt at elevated temperatures (60° C., 70° C.); assay type: physicochemical; details: for Solids dissolve at 70° C.?: 70° C. for approximately 3.0 hours
[3] = Isothermic (25° C.) DVS analysis of salts of the compound of Formula I; assay type: physicochemical
Excerpt: (FIG. 16D). […] Some hysteresis was observed. […] (FIG. 16C). […] (FIG. 16D).
(FIG. 18A). […] (FIG. 18B). […] Some hysteresis was observed. […] An overlay of FTIR spectra of the L- and D-malic acid salts is shown in FIG. 18F. ^1H NMR spectra of the L- and D-malic salts in DMSO-d^6 are shown in FIG. 18G-18H, respectively.

[4] = Solubility test of the L-malic acid salt at room temperature; assay type: physicochemical; details: DMSO, two lots

SMILES: COc1ccc(CN2CCN(c3ccc(-c4cc(-c5cnn(C)c5)cn5ncc(C#N)c45)cn3)CC2)cn1.O=C(O)C[C@H](O)C(=O)O [L-malic acid salt]
- Absolute % change ([1]; 40° C. and 75% RH, T = 0 to 4 weeks): 0.5%
- Stability, HPLC analysis, T = 1 week ([1]; stored at 40° C. and 75% RH, 1 week): 97.7%
- Stability, HPLC analysis, T = 2 weeks ([1]; stored at 40° C. and 75% RH, 2 weeks): 97.4%
- Stability, HPLC analysis, T = 3 weeks ([1]; stored at 40° C. and 75% RH, 3 weeks): 97.4%
- Stability, HPLC analysis, T = 4 weeks ([1]; stored at 40° C. and 75% RH, 4 weeks): 97.3%
- Stability, HPLC analysis, T = 0 ([1]; stored at 40° C. and 75% RH, T = 0): 97.8%
- Solids dissolve at 60° C.? ([2]; 60° C. for 3.0 hours, solvent 0.1M HCl, Yes): Yes (>13.4 mg/mL)
- Solids dissolve at 60° C.? ([2]; 60° C. for 3.0 hours, solvent 2-methyl THF): No
- Solids dissolve at 60° C.? ([2]; 60° C. for 3.0 hours, solvent ACN): No
- Solids dissolve at 60° C.? ([2]; 60° C. for 3.0 hours, solvent Acetone): No
- Solids dissolve at 60° C.? ([2]; 60° C. for 3.0 hours, solvent DCE): No
- Solids dissolve at 60° C.? ([2]; 60° C. for 3.0 hours, solvent DMSO, Yes): Yes (>36 mg/mL)
- Solids dissolve at 60° C.? ([2]; 60° C. for 3.0 hours, solvent EtOAc): No
- Solids dissolve at 60° C.? ([2]; 60° C. for 3.0 hours, solvent EtOH): No
- Solids dissolve at 60° C.? ([2]; 60° C. for 3.0 hours, solvent IPA): No
- Solids dissolve at 60° C.? ([2]; 60° C. for 3.0 hours, solvent MEK): No
- Solids dissolve at 60° C.? ([2]; 60° C. for 3.0 hours, solvent MTBE): No
- Solids dissolve at 60° C.? ([2]; 60° C. for 3.0 hours, solvent MeOH): No
- Solids dissolve at 60° C.? ([2]; 60° C. for 3.0 hours, solvent Toluene): No
- Solids dissolve at 60° C.? ([2]; 60° C. for 3.0 hours, solvent iPAc): No
- Solids dissolve at 60° C.? ([2]; 60° C. for 3.0 hours, solvent water): No
- Solids dissolve at 70° C.? ([2]; solvent 2-methyl THF): No
- Solids dissolve at 70° C.? ([2]; solvent ACN): No
- Solids dissolve at 70° C.? ([2]; solvent DCE): No
- Solids dissolve at 70° C.? ([2]; solvent DMSO, Yes): Yes (>56 mg/mL)
- Solids dissolve at 70° C.? ([2]; solvent EtOAc): No
- Solids dissolve at 70° C.? ([2]; solvent EtOH): No
- Solids dissolve at 70° C.? ([2]; solvent IPA): No
- Solids dissolve at 70° C.? ([2]; solvent MEK): No
- Solids dissolve at 70° C.? ([2]; solvent MTBE): No
- Solids dissolve at 70° C.? ([2]; solvent Toluene): No
- Solids dissolve at 70° C.? ([2]; solvent iPAc): No
- Solids dissolve at 70° C.? ([2]; solvent water): No
- Solids dissolve at 60° C.? ([2]; solvent THF, cell says 65° C.): ~65 °C almost 12.3 mg/mL
- Mass gain by DVS ([3]; 80% relative humidity, 25° C.): approximately 2.8%
- Hygroscopicity by DVS (in words) ([3]; isothermic 25° C.): hygroscopic
- Deliquescence upon removal from the DVS chamber ([3]; sample remained a free-flowing powder): no observable deliquescence
- solubility [4]: 14 to 15 mg/mL
